Usually MIC stands for the lowest concentration that inhibits growth of the organism. A low value points to inhibition by little substance.

≈ marks a conversion by molar mass, not a printed value.

The record followed here is ChEMBL document CHEMBL1136816, “Synthesis and evaluation of ether and halogenated derivatives of mannopeptimycin glycopeptide antibiotics” (2003).

Common to all, as to format: functional
For assay [1], the system named is Streptococcus sp. Briefly: In vitro minimum inhibitory concentration against Streptococcus species; 0.5-2.
For assay [2], the system named is Enterococcus sp. In words: In vitro minimum inhibitory concentration against Enterococcus species; 8-16.
In assay [3] the test system is Staphylococcus aureus. Briefly: In vitro minimum inhibitory concentration against Staphylococcus aureus; 4-8.
In assay [4] the test system is Enterococcus sp. In words: In vitro minimum inhibitory concentration against Enterococcus species.
The subject of assay [5] is Staphylococcus aureus. Briefly: In vitro minimum inhibitory concentration against Staphylococcus aureus.
Assay [6] concerns Streptococcus sp. Briefly: In vitro minimum inhibitory concentration against Streptococcus species.
Assay [7] deals with Staphylococcus aureus. Briefly: In vitro minimum inhibitory concentration against Staphylococcus aureus; 1-2.
For assay [8], the system named is Enterococcus sp. In words: In vitro minimum inhibitory concentration against Enterococcus species; 2-4.
The subject of assay [9] is Streptococcus sp. Briefly: In vitro minimum inhibitory concentration against Streptococcus species; 0.12-0.5.
Assay [10] concerns Staphylococcus aureus. Briefly: In vitro minimum inhibitory concentration against Staphylococcus aureus; 2-4.
The subject of assay [11] is Staphylococcus aureus. Briefly: In vitro minimum inhibitory concentration against Staphylococcus aureus; 32-64.
The subject of assay [12] is Streptococcus sp. In words: In vitro minimum inhibitory concentration against Streptococcus species; 8-32.
The subject of assay [13] is Enterococcus sp. In words: In vitro minimum inhibitory concentration against Enterococcus species; 32->64.
Assay [14] deals with Enterococcus sp. Briefly: In vitro minimum inhibitory concentration against Enterococcus species; 4-16.
In assay [15] the test system is Streptococcus sp. Briefly: In vitro minimum inhibitory concentration against Streptococcus species; </=0.06-2.
Assay [16] relates to Enterococcus sp. Briefly: In vitro minimum inhibitory concentration against Enterococcus species; 0.5->64.

For `C[C@@H](c1ccccc1)[C@@H]1NC(=O)CNC(=O)[C@H](CO)NC(=O)[C@@H]([C@@H](O)[C@@H]2CN=C(N)N2[C@H]2O[C@H](CO)[C@@H](O)[C@H](O)[C@@H]2O)NC(=O)[C@H]([C@@H](O)[C@@H]2CN=C(N)N2)NC(=O)[C@@H](Cc2ccc(O[C@H]3O[C@H](CO)[C@@H](O[C@H]4O[C@H](COC/C=C/c5ccccc5)[C@@H](O)[C@H](O)[C@@H]4O)[C@H](O)[C@@H]3O)cc2)NC1=O`, the values for the MIC in the assay on Streptococcus sp. [1], in the assay with Enterococcus sp. [2] and in the assay with Staphylococcus aureus [3] were 0.5 µg/mL (≈ 0.354 µM), 8 µg/mL (≈ 5.67 µM) and 4 µg/mL (≈ 2.83 µM), respectively.

For `C[C@@H](c1ccccc1)[C@@H]1NC(=O)CNC(=O)[C@H](CO)NC(=O)[C@@H]([C@@H](O)[C@@H]2CN=C(N)N2[C@H]2O[C@H](CO)[C@@H](O)[C@H](O)[C@@H]2O)NC(=O)[C@H]([C@@H](O)[C@@H]2CN=C(N)N2)NC(=O)[C@@H](Cc2ccc(O[C@H]3O[C@H](CO)[C@@H](O[C@H]4O[C@H](CO)[C@@H](O)[C@H](O)[C@@H]4O)[C@H](O)[C@@H]3O)c(I)c2)NC1=O`, the MIC with Enterococcus sp. [4], with Staphylococcus aureus [5] and with Streptococcus sp. [6] was > 128 µg/mL each time.

Regarding `CCCOc1ccc(COC[C@H]2O[C@H](O[C@H]3[C@H](O)[C@H](O)[C@@H](Oc4ccc(C[C@H]5NC(=O)[C@H]([C@@H](C)c6ccccc6)NC(=O)CNC(=O)[C@H](CO)NC(=O)[C@@H]([C@@H](O)[C@@H]6CN=C(N)N6[C@H]6O[C@H](CO)[C@@H](O)[C@H](O)[C@@H]6O)NC(=O)[C@H]([C@@H](O)[C@@H]6CN=C(N)N6)NC5=O)cc4)O[C@@H]3CO)[C@@H](O)[C@@H](O)[C@@H]2O)cc1`, the figures for the MIC in the assay on Staphylococcus aureus [7], against Enterococcus sp. [8] and against Streptococcus sp. [6] were 1 µg/mL (≈ 0.693 µM), 2 µg/mL (≈ 1.39 µM) and ≤ 0.06 µg/mL, respectively.

Regarding `Cc1ccc(COC[C@H]2O[C@H](O[C@H]3[C@H](O)[C@H](O)[C@@H](Oc4ccc(C[C@H]5NC(=O)[C@H]([C@@H](C)c6ccccc6)NC(=O)CNC(=O)[C@H](CO)NC(=O)[C@@H]([C@@H](O)[C@@H]6CN=C(N)N6[C@H]6O[C@H](CO)[C@@H](O)[C@H](O)[C@@H]6O)NC(=O)[C@H]([C@@H](O)[C@@H]6CN=C(N)N6)NC5=O)cc4)O[C@@H]3CO)[C@@H](O)[C@@H](O)[C@@H]2O)cc1`, the MIC in the assay with Streptococcus sp. [9] came out at 0.12 µg/mL (≈ 0.0857 µM); against Enterococcus sp. [8], 2 µg/mL (≈ 1.43 µM); against Staphylococcus aureus [5] it was 2 µg/mL (≈ 1.43 µM).

For `C[C@@H](c1ccccc1)[C@@H]1NC(=O)CNC(=O)[C@H](CO)NC(=O)[C@@H]([C@@H](O)[C@@H]2CN=C(N)N2[C@H]2O[C@H](CO)[C@@H](O)[C@H](O)[C@@H]2O)NC(=O)[C@H]([C@@H](O)[C@@H]2CN=C(N)N2)NC(=O)[C@@H](Cc2ccc(O[C@H]3O[C@H](CO)[C@@H](O[C@H]4O[C@H](CO)[C@@H](OCC=C(c5ccccc5)c5ccccc5)[C@H](O)[C@@H]4O)[C@H](O)[C@@H]3O)cc2)NC1=O`, the MIC in the assay with Enterococcus sp. [8] was 2 µg/mL (≈ 1.34 µM); against Staphylococcus aureus [10], 2 µg/mL (≈ 1.34 µM); in the assay with Streptococcus sp. [6], ≤ 0.06 µg/mL.

`C[C@@H](c1ccccc1)[C@@H]1NC(=O)CNC(=O)[C@H](CO)NC(=O)[C@@H]([C@@H](O)[C@@H]2CN=C(N)N2[C@H]2O[C@H](CO)[C@@H](O)[C@H](O)[C@@H]2O)NC(=O)[C@H]([C@@H](O)[C@@H]2CN=C(N)N2)NC(=O)[C@@H](Cc2ccc(O[C@H]3O[C@H](CO)[C@@H](O[C@H]4O[C@H](COC/C=C/c5ccc(N(C)C)cc5)[C@@H](O)[C@H](O)[C@@H]4O)[C@H](O)[C@@H]3O)cc2)NC1=O`: the MIC is 32 µg/mL (≈ 22 µM) against Staphylococcus aureus [11], 8 µg/mL (≈ 5.5 µM) in the assay with Streptococcus sp. [12] and 32 µg/mL (≈ 22 µM) in the assay on Enterococcus sp. [13].

With `COc1ccc(CO[C@H]2[C@H](O)[C@H](O)[C@@H](O[C@H]3[C@H](O)[C@H](O)[C@@H](Oc4ccc(C[C@H]5NC(=O)[C@H]([C@@H](C)c6ccccc6)NC(=O)CNC(=O)[C@H](CO)NC(=O)[C@@H]([C@@H](O)[C@@H]6CN=C(N)N6[C@H]6O[C@H](CO)[C@@H](O)[C@H](O)[C@@H]6O)NC(=O)[C@H]([C@@H](O)[C@@H]6CN=C(N)N6)NC5=O)cc4)O[C@@H]3CO)O[C@@H]2CO)cc1OCc1ccccc1`, the figures for the minimal inhibitory concentration (MIC) with Enterococcus sp. [14], against Streptococcus sp. [15] and against Staphylococcus aureus [10] were 4 µg/mL (≈ 2.63 µM), ≤ 0.06 µg/mL and 2 µg/mL (≈ 1.31 µM), respectively.

`CN[C@H](CC(C)C)C(=O)N[C@H]1C(=O)N[C@@H](CC(N)=O)C(=O)N[C@H]2C(=O)N[C@H]3C(=O)N[C@H](C(=O)N[C@H](C(=O)O)c4cc(O)cc(O)c4-c4cc3ccc4O)[C@H](O)c3ccc(c(Cl)c3)Oc3cc2cc(c3O[C@@H]2O[C@H](CO)[C@@H](O)[C@H](O)[C@H]2O[C@H]2C[C@](C)(N)[C@H](O)[C@H](C)O2)Oc2ccc(cc2Cl)[C@H]1O` [VANCOMYCIN]: the MIC came to 0.12 µg/mL (≈ 0.0828 µM) with Streptococcus sp. [9] and 0.5 µg/mL (≈ 0.345 µM) with Enterococcus sp. [16].
